Patent US9867798B2, “Ladostigil therapy for immunomodulation” (priority 2012, dated 2018)

Columns and labels:
[1] = test system: LPS-induced TNF-α, IL-1β and IL-6 in spleen; experiment: Cytokines in spleen of mice injected with LPS, comparison to rivastigmine (Example 5); format: in vivo, Balb/c mice; settings: for IL-1β in spleen / IL-6 in spleen / TNF-α in spleen: four hours
Description: Male Balb/c mice (aged 8-9 weeks, weighing 25-30 gm) were given ladostigil (10 or 20 mg/kg) or rivastigmine (0.5 or 1 mg/kg) by gavage, or water (1 ml/100 g), followed 15 min later by an intra-peritoneal injection of LPS (10 mg/kg). Control mice were given LPS and water by gavage (1 ml/100 g). For measurement of cytokine levels in the spleen and blood the mice were sacrificed 4 h after drug administration, blood collected in heparinized tubes and centrifuged to obtain plasma and the spleen was rapidly removed and weighed. Plasma and spleen were frozen in liquid nitrogen and stored at −80° C. until use. For measurement of cytokine levels, the tissue was diluted in PBS containing 0.8% NaCl, 0.144% NaHPO4, 0.024% KH2PO4 and protease inhibitor cocktail (Sigma Israel, P8340) and homogenized in an Ultra-TURRAX® homogenizer at a speed of 24,000 rpm, centrifuged at 14000 g for 15 min at 4° C. Cytokines were detected in the supernatant by using ELISA kits for cytokines IL-1β, IL-6, and TNF-α (Biolegend) following the manufacturer's protocol. Each experiment was performed twice with 8 replicate measures in each experiment. Protein concentration in each sample was determined with Bradford reagent (Bio-RAD, 500-0006).

[2] = test system: mice with DSS-induced colitis; experiment: Acute colitis induced by DSS in mice: body weight, stool, bleeding, DAI, colon length; format: in vivo, BALB/c OlaHsd mice
Description: (§1) BALB/c OlaHsd male mice aged 8-9 weeks and weighing 25-30 g were purchased from Harlan (Jerusalem, Israel) and housed in standard cages of up to 5 per cage in the pathogen free Animal Facility of the Institute for Drug Research. All experiments were performed in accordance with the Principles of Laboratory Animal Care (NIH publication #85-23, revised 1985) protocols MD-09-12197-4. Acute colitis was induced in mice by administration of 5% DSS solution (M.Wt.=[…], MP Biomedicals, LLC, Solon, Ohio, USA) in water for 8 days. The DSS solution was freshly prepared every day. Mice were provided with food and water or DSS solution ad libitum during the experiment. They were divided into groups of 10 as follows: Vehicle control group: mice drank water and were given water (1 ml/100 gm) once daily by gavage for 8 days; Drug control group: mice drank water and were given ladostigil (10 mg/kg) by gavage once daily for 8 days. DSS untreated group: mice drank 5% DSS for 7 days and water on the 8th day and were given water (1 ml/100 g) once daily by gavage for 8 days. Drug treated group: mice drank 5% DSS followed by water as above and were given ladostigil (5 or 10 mg/kg) by gavage once daily for 8 days. The volume of 5% DSS solution consumed was measured for each group of mice and the average volume/mouse was calculated. On the eighth day, the mice were anesthetized by CO2 and sacrificed by cervical dislocation 2 h after the last dose of ladostigil. Samples of colon and spleen were taken for measurement of cytokines MPO, cytokines and ChE activity.
Body weight, stool consistency and the presence of blood in the stools was recorded daily for each mouse. […] The score ranged between 0-4 for all three parameters and was composed as follows: Weight loss: none=0, 1-5%=1, 5-10%=2, 10-20%=3, >20%=4. Percent of weight loss on days 7 and 8 relative to the first day was calculated for all the groups. […] Bleeding: none=0, hemoccult=2, gross bleeding=4. The maximum DAI score was 4 based on a combination of scores of weight loss (relative to that on the first day of the experiment), stool consistency and bleeding, divided by 3. After sacrifice the length of the colon segment from the cecum to the rectum was measured.

[3] = test system: cholinesterase (AChE and BuChE); experiment: Cholinesterase activity in spleen and colon of mice drinking DSS (Ellman); format: in vivo; settings: rivastigmine 1 mg/kg/day
Description: as §1
(§2) In experiments on the effect of chronic treatment with ladostigil on ChE activity in mice drinking DSS, the spleen was rapidly removed as described above, together with a colon segment of about 0.5 cm in length taken from the proximal area. Spleen and colon segments were washed in cold phosphate buffered saline (PBS) before they were frozen at −80° C. For assay, the tissue was unfrozen and weighed and PBS was added to each tissue at a ratio of 1 mg tissue to 1 ml. Tissues were homogenized at a speed of 24,000 rpm in cold phosphate buffer pH 7 containing 0.1% Triton and centrifuged at 14000 rpm. Aliquots of plasma and the supernatant from the spleen and colon were incubated with acetylthiocholine and dinitro benzoic acid in phosphate buffer pH 7 and the rate of development of the yellow color was measured as described by Ellman et al, (1961). Percent inhibition of ChE activity was calculated by comparison with that of control mice given water by gavage. Protein concentration was determined by means of by Pierce BCA Protein Assay Kit (Thermo Scientific, USA) according to the manufacturer's instructions. It is noted, that ChE activity in the colon and spleen of mice is attributed mainly to that of AChE while that in mouse plasma is mainly attributable to BuChE.

ChE = experiment: Cholinesterase inhibition in plasma and spleen of LPS injected mice (Example 5); format: in vivo, Balb-C mice; settings: for Inhibition of ChE, plasma / Inhibition of ChE, spleen: 60 min after oral administration, LPS injected mice
Description: as §2
For the LPS experiment involving a single administration, ladostigil (10 or 20 mg/kg) in a volume of 1 ml/100 g or water (1 ml/100 g) were given by gavage to groups of 6-8 Balb-C male mice weighing 24-30 g and LPS as described above. […] Blood was taken into heparinized tubes and centrifuged at 14000 rpm at room temperature for 4 min to provide plasma and the spleen was rapidly removed, weighed, frozen in liquid nitrogen and stored at −80° C. until assayed. It is noted, that ChE inhibition in mouse plasma is mainly attributed to BuChE activity, and in mouse spleen—mainly to AChE activity.
Percent inhibition of ChE activity was calculated by comparison with that of control mice given water by gavage as described in Example 1 above.

[4] = rivastigmine 0.5 mg/kg + LPS 10 mg/kg
[5] = rivastigmine 1 mg/kg + LPS 10 mg/kg

`CCN(C)C(=O)Oc1cccc([C@H](C)N(C)C)c1` [Rivastigmine, reference compound] was tested, and the “Effect on levels of the three cytokines in spleen” value ([1]; rivastigmine 0.5 mg/kg + LPS) was “had no effect on levels of any of the three cytokines”, the IL-1β in spleen [1, 4] was 551 ± 31 pg/mg and the IL-6 in spleen [1, 4] was 569 ± 89 pg/mg. The TNF-α in spleen [1, 4] was 16.8 ± 2.5 pg/mg, the “Effect on cytokine levels in spleen” value ([1]; rivastigmine 1 mg/kg + LPS) was “significantly reduced IL-1β and IL-6, but not of TNF-α” and the IL-1β in spleen [1, 5] was 440 ± 40 pg/mg. The IL-6 in spleen [1, 5] was 462 ± 66 pg/mg, the TNF-α in spleen [1, 5] was 16.5 ± 2.2 pg/mg and the “Prevention of weight loss induced by DSS” value ([2]; 5% DSS, rivastigmine) was “did not prevent the weight loss”. The Body weight decrease ([2]; mice given 1 mg/kg/day) was 4.7%, the “Inhibition of colonic ChE” value [3] was over 60% and the “Inhibition of ChE, plasma” value (ChE; rivastigmine 0.5 mg/kg) was 28 ± 4.5 %. The “Inhibition of ChE, spleen” value (ChE; rivastigmine 0.5 mg/kg) was 32.6 ± 5.6 %, the “Inhibition of ChE in plasma and spleen, compared with rivastigmine 0.5 mg/kg” value (ChE; rivastigmine 1 mg/kg) was “about twice as much” and the “Inhibition of ChE, plasma” value (ChE; rivastigmine 1 mg/kg) was 56.8 ± 6.1 %. The “Inhibition of ChE, spleen” value (ChE; rivastigmine 1 mg/kg) was 65.8 ± 3.2 %.
